Values of other authors in patent US7807616B2, “Geranonitrile substitute” (Henkel AG & Co. KGaA, priority 2004, dated 2010).
Where two headings read alike, the source gives them in different places.

Experiments:
[1] = new findings (BASF, 2003); status 2004
[2] = solution heated at 100° C. for two hours

Row | amount of the anhydrous salt that dissolves in 100 g of water (at 60°) | amount of the anhydrous salt that dissolves in 100 g of water (at 100°) | amount of the anhydrous salt that dissolves in 100 g of water (room temperature) | diphosphate produced by hydrolysis [2] [%] | orthophosphate produced by hydrolysis [2] | SMILES | class under the EU classification criteria (CMR) [1]
1 | – | – | – | – | – | CC(C)=CCCC(C)=CC#N [geranonitrile, 3,7-dimethyl-2,6-octadienenitrile] | category 3 mutagen (M:3)
2 | about 20 g | around 32 g | About 17 g | ~15 | about 8% | O=P([O-])([O-])OP(=O)([O-])OP(=O)([O-])[O-].[Na+].[Na+].[Na+].[Na+].[Na+] [pentasodium triphosphate] | –
